In patent US11643428B2, “Therapeutic drug for neurodegenerative disease and application thereof” (SHANGHAI PHARMACEUTICALS HOLDING CO., LTD., priority 2018, dated 2023):

Legend:
[1] = test system: mouse BV-2 cell line; assay: Expression of inflammatory factors in LPS-treated BV-2 cells by QPCR; assay type: cell-based; details: PL202 30, 100, 300 μM, LPS 300 ng/ml, 24 hours
Protocol: Neuroinflammation in the brain of AD is one of the causes of cognitive decline. Microglial cells are the key cells that mediate neuroinflammation. In this example, the inventors have explored whether PL201 has the effect of inhibiting neuroinflammation by detecting the expressions of inflammatory factors on mouse BV-2 cell line.
BV-2 cells were cultured in DMEM, plated to 24 well plates and cultured for 24 hours, then PL201 (0, 10, 30, and 100 μM) and LPS (300 ng/ml) were added. After co-incubation for 24 hours, Trizol was used to extract RNA and the expressions of related inflammatory factors were detected by QPCR.
Mouse BV-2 cells were cultured in DMEM, plated to 24 well plates and cultured for 24 hours, then PL202 (0, 30, 100, and 300 μM) and LPS (300 ng/ml) were added. After co-incubation for 24 hours, Trizol was used to extract RNA and the expressions of related inflammatory factors were detected by QPCR.

[2] = test system: neuroblastoma cells SK-N-SH; assay: Total Aβ in supernatant of SK-N-SH cells by ELISA; assay type: cell-based; details: 24 hours
Protocol: Culture of neuroblastoma cells SK-N-SH and Aβ detection: SK-N-SH cells were cultured in DMEM, plated to 24 well plates and cultured for 24 hours, then PL201 (0, 30, 100, and 300 μM) was added. After co-incubation for 24 hours, the protein level of total Aβ in supernatant was detected by ELISA.
Culture of neuroblastoma cells SK-N-SH and Aβ detection: SK-N-SH cells were cultured in DMEM, plated to 24 well plates and cultured for 24 hours, then PL202 (0, 30, and 100 μM) was added. After co-incubation for 24 hours, protein level of total Aβ in supernatant was detected by ELISA.
Culture of neuroblastoma cells SK-N-SH and Aβ detection: SK-N-SH cells were cultured in DMEM, plated to 24 well plates and cultured for 24 hours, then PL171 (300 μM) was added. After co-incubation for 24 hours, protein level of total Aβ in supernatant was detected by ELISA.
Culture of neuroblastoma cells SK-N-SH and Aβ detection: SK-N-SH cells were cultured in DMEM, plated to 24 well plates and cultured for 24 hours, then PL172 (300 μM) was added. After co-incubation for 24 hours, protein level of total Aβ in supernatant was detected by ELISA.

SMILES	expression of inflammatory factor IL-1β [1]	expression of inflammatory factor iNOS [1]	Aβ production (total Aβ in supernatant) ([2]; 30, 100 μM)	Aβ production (total Aβ in supernatant) ([2]; 300 μM)
COc1cc(/C=C/C(=O)OC2OC(C)C(O)C(O)C2O)ccc1O [PL202, (β-L-rhamnopyranosyl) ferulic acid ester]	significantly inhibited	significantly inhibited	significantly inhibited	–
COc1cc(/C=C/C(=O)NC2OC(C)C(O)C(O)C2O)ccc1O [PL171, (1-amino-β-L-rhamnopyranosyl) ferulamide]	–	–	–	significantly inhibited
COc1cc(/C=C/C(=O)NC2OC(C)C(O)C(O)C2O)ccc1O [PL172, (1-amino-α-L-rhamnopyranosyl) ferulamide]	–	–	–	significantly inhibited
